Like-named read-outs stand apart in the source and are kept apart here.
Target: T1, BRAF V600E (Homo sapiens, UniProt P15056+Q96SW2, V600E)
T1 construct: knock-in of the HiBiT tag to the endogenous BRAF V600E locus; host or cells: A375.10 (A375 clonal line, CRISPR HiBiT knock-in at the endogenous BRAF V600E locus)
Test: BRAF V600E HiBiT Degradation Assay
Type: cell-based
Summary of the method: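 Endogenous HiBiT knock-in on BRAF V600E in A375 cells (clone A375.10); 11-point half-log series, top 10 μM, 2, 6 or 24 h at 37° C. Lytic HiBiT luminescence, background-subtracted, normalized to DMSO; 4-parameter fit gives DC50, Emax (residual protein) and IP (inflection point).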

[1] = A375.10 cells, BRAF V600E, 2 hours, inflection point, read-out: HiBiT-Degradation A375.10 BRAF 2 hours IP
[2] = A375.10 cells, BRAF V600E, 2 hours, read-out: HiBiT-Degradation A375.10 BRAF 2 hours DC50
[3] = A375.10 cells, BRAF V600E, 2 hours, residual protein remaining, read-out: HiBiT-Degradation A375.10 BRAF 2 hours Emax
[4] = A375.10 cells, BRAF V600E, 6 hours, inflection point, read-out: HiBiT-Degradation A375.10 BRAF 6 hours IP
[5] = A375.10 cells, BRAF V600E, 6 hours, read-out: HiBiT-Degradation A375.10 BRAF 6 hours DC50
[6] = A375.10 cells, BRAF V600E, 6 hours, residual protein remaining, read-out: HiBiT-Degradation A375.10 BRAF 6 hours Emax
[7] = A375.10 cells, HiBiT, BRAF V600E, 24 hours, read-out: HiBiT-Degradation A375.10 BRAF 24 hours DC50
[8] = A375.10 cells, HiBiT, BRAF V600E, 24 hours, read-out: HiBiT-Degradation A375.10 BRAF 24 hours Emax
[9] = A375.10 cells, HiBiT, BRAF V600E, 24 hours, read-out: HiBiT-Degradation A375.10 BRAF 24 hours IP
[10] = read-out: HiBiT-Degradation A375.10 BRAF 2 hours DC50, A375.10 cells, BRAF V600E, 2 hours
[11] = read-out: HiBiT-Degradation A375.10 BRAF 2 hours Emax, A375.10 cells, BRAF V600E, 2 hours, residual protein remaining
[12] = read-out: HiBiT-Degradation A375.10 BRAF 2 hours IP, A375.10 cells, BRAF V600E, 2 hours, inflection point

T1 sequence (P15056 whole entry V600E): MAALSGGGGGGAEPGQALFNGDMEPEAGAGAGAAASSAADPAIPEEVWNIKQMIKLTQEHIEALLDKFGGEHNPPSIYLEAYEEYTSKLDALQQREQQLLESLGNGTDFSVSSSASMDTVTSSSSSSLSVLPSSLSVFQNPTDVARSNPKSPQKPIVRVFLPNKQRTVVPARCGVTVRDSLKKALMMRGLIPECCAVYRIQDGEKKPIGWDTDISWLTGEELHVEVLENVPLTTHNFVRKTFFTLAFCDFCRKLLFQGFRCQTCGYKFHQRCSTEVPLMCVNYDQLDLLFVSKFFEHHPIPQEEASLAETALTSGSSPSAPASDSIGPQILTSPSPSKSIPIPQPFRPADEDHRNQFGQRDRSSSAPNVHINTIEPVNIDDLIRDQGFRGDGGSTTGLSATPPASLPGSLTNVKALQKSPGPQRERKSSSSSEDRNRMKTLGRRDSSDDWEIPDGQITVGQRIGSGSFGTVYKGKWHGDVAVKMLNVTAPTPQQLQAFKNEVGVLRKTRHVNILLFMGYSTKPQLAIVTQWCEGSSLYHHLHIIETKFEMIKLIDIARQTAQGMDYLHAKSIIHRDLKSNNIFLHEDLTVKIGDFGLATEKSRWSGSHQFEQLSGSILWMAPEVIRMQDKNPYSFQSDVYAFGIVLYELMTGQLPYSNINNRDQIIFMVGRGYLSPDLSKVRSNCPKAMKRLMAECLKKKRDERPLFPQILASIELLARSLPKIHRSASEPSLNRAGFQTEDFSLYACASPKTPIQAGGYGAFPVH
T1 sequence (Q96SW2 whole entry): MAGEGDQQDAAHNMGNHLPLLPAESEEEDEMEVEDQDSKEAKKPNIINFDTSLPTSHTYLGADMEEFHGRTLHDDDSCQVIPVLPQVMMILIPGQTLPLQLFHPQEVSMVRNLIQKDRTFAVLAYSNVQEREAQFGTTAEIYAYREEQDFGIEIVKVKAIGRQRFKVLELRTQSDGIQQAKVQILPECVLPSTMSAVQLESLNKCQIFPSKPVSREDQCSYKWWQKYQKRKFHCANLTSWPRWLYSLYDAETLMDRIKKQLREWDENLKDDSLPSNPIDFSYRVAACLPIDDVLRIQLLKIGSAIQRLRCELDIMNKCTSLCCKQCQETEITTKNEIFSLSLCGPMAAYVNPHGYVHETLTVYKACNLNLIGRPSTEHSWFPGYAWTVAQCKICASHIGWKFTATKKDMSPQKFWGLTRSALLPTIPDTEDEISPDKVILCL
T1 sequence (Q16531 whole entry partner): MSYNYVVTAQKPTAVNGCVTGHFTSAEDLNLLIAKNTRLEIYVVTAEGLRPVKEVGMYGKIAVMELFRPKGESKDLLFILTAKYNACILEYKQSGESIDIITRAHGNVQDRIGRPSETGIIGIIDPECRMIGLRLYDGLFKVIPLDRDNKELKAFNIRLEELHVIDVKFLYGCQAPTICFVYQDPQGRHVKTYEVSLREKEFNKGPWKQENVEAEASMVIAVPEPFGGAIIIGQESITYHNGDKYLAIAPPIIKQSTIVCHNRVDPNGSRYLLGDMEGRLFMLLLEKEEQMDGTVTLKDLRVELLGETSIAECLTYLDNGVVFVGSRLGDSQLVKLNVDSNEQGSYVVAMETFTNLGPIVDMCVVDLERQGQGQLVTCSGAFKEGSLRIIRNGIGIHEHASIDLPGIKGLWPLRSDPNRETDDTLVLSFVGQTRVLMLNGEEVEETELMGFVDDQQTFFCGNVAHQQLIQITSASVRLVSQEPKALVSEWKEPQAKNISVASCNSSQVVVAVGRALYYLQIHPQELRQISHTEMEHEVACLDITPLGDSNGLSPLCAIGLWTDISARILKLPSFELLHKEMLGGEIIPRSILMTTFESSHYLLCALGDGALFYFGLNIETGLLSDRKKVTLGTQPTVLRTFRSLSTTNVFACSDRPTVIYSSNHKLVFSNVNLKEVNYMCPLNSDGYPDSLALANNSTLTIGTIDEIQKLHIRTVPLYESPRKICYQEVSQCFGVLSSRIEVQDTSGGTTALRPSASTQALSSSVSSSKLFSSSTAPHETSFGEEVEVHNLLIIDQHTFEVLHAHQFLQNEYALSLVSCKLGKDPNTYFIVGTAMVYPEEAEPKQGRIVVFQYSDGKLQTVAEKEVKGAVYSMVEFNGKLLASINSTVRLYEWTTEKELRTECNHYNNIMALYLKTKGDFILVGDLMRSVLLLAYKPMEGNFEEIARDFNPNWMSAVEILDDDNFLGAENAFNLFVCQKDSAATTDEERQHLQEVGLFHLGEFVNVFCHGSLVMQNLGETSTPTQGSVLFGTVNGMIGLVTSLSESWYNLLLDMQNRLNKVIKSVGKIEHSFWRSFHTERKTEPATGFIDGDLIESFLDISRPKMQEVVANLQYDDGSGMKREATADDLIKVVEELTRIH

| SMILES | DC50 [1] | DC50 [2] | Emax [3] | DC50 [4] | DC50 [5] | Emax [6] | DC50 [7] | Emax [8] | DC50 [9] | DC50 [10] | Emax [11] | DC50 [12] | DC50 (read-out: HiBiT-Degradation A375.10 BRAF 6 hours DC50, A375.10 cells, BRAF V600E, 6 hours) | DC50 (read-out: HiBiT-Degradation A375.10 BRAF 6 hours IP, A375.10 cells, BRAF V600E, 6 hours, inflection point) | DC50 (read-out: HiBiT-Degradation A375.10 BRAF 24 hours DC50, A375.10 cells, HiBiT, BRAF V600E, 24 hours) | DC50 (read-out: HiBiT-Degradation A375.10 BRAF 24 hours IP, A375.10 cells, HiBiT, BRAF V600E, 24 hours) |
| --- | --- | --- | --- | --- | --- | --- | --- | --- | --- | --- | --- | --- | --- | --- | --- | --- |
| CCN(C)S(=O)(=O)Nc1ccc(F)c(C(=O)c2ccc3ncn(C4CC5(CCN(C6CCC(c7cc8c(cc7F)c(N7CCC(=O)NC7=O)nn8C)CC6)CC5)C4)c(=O)c3c2)c1F (single isomer, unassigned) [Compound 182, 3-[7-[4-[3-(2,4-dioxohexahydropyrimidin-1-yl)-5-fluoro-1-methyl-indazol-6-yl]cyclohexyl]-7-azaspiro[3.5]nonan-2-yl]-6-[3-[[ethyl(methyl)sulfamoyl]amino]-2,6-difluoro-benzoyl]-4-oxo-quinazoline] | < 1000 nM | 1000 to 10000 nM | 50 to 90% | < 1000 nM | < 1000 nM | < 50% | < 1000 nM | < 50% | < 1000 nM |  |  |  |  |  |  |  |
| CN(CCO)S(=O)(=O)Nc1ccc(F)c(Oc2ccc3ncn([C@H]4COC5(CCN(C6CCC(c7ccc(NC8CCC(=O)NC8=O)cc7F)CC6)CC5)C4)c(=O)c3c2)c1C#N (single isomer, unassigned) [Compound 76] | < 1000 nM | < 1000 nM | < 50% | < 1000 nM | < 1000 nM | < 50% | < 1000 nM | < 50% | < 1000 nM |  |  |  |  |  |  |  |
| CO[C@@H]1CCN(S(=O)(=O)Nc2ccc(F)c(Oc3ccc4ncn([C@H]5COC6(CCN(C7CC8(C7)CN(c7cc9c(cc7F)c(N7CCC(=O)NC7=O)nn9C)C8)CC6)C5)c(=O)c4c3)c2C#N)C1 [Compound 144, (3R)-N-[2-cyano-3-[3-[(3R)-8-[2-[3-(2,4-dioxohexahydropyrimidin-1-yl)-5-fluoro-1-methyl-indazol-6-yl]-2-azaspiro[3.3]heptan-6-yl]-1-oxa-8-azaspiro[4.5]decan-3-yl]-4-oxo-quinazolin-6-yl]oxy-4-fluoro-phenyl]-3-methoxy-pyrrolidine-1-sulfonamide] |  |  |  |  |  | < 50% |  | < 50% |  | 1000 to 10000 nM | 50 to 90% | < 1000 nM | < 1000 nM | < 1000 nM | < 1000 nM | < 1000 nM |
| CCN(C)S(=O)(=O)Nc1ccc(F)c(Oc2ccc3ncc(OCC4CCN(C5CCC(c6cc7c(cc6F)c(N6CCC(=O)NC6=O)nn7C)CC5)CC4)nc3c2)c1C#N (single isomer, unassigned) [Compound 118, 7-[2-cyano-3-[[ethyl(methyl)sulfamoyl]amino]-6-fluoro-phenoxy]-2-[[1-[4-[3-(2,4-dioxohexahydropyrimidin-1-yl)-5-fluoro-1-methyl-indazol-6-yl]cyclohexyl]-4-piperidyl]methoxy]quinoxaline] | < 1000 nM | < 1000 nM |  | < 1000 nM | < 1000 nM | < 50% | < 1000 nM | < 50% | < 1000 nM |  | 50 to 90% |  |  |  |  |  |
| CO[C@@H]1CCN(S(=O)(=O)Nc2ccc(F)c(Oc3ccc4ncn([C@H]5COC6(CCN(C7CCC(c8ccc(NC9CCC(=O)NC9=O)cc8F)CC7)CC6)C5)c(=O)c4c3)c2C#N)C1 (single isomer, unassigned) [Compound 109] | < 1000 nM | < 1000 nM | < 50% | < 1000 nM | < 1000 nM | < 50% | < 1000 nM | < 50% | < 1000 nM |  |  |  |  |  |  |  |
| CCN(C)S(=O)(=O)Nc1ccc(F)c(Oc2ccc3ncn(C4CC5(CCN(C6CCC(c7cc8c(cc7F)c(N7CCC(=O)NC7=O)nn8C)CC6F)CC5)C4)c(=O)c3c2)c1F (single isomer, unassigned) [Compound 184] | < 1000 nM | < 1000 nM | < 50% | < 1000 nM | < 1000 nM | < 50% | < 1000 nM | < 50% | < 1000 nM |  |  |  |  |  |  |  |
| Cn1nc(N2CCC(=O)NC2=O)c2cc(F)c(N3CC4(CC(N5CCC6(CC5)CC(n5cnc7ccc(Oc8c(F)ccc(NS(=O)(=O)C9CC9)c8C#N)cc7c5=O)C6)C4)C3)cc21 [Compound 260, N-[2-cyano-3-[3-[7-[2-[3-(2,4-dioxohexahydropyrimidin-1-yl)-5-fluoro-1-methyl-indazol-6-yl]-2-azaspiro[3.3]heptan-6-yl]-7-azaspiro[3.5]nonan-2-yl]-4-oxo-quinazolin-6-yl]oxy-4-fluoro-phenyl]cyclopropanesulfonamide] |  |  |  |  |  |  |  |  |  | < 1000 nM | < 50% | < 1000 nM |  |  |  |  |
| CCN(C)S(=O)(=O)Nc1ccc(F)c(Oc2ccc3ncn([C@H]4COC5(CCN(C6CCC(c7ccc(N[C@H]8CCC(=O)NC8=O)cc7F)CC6)CC5)C4)c(=O)c3c2)c1C#N (single isomer, unassigned) [Compound 3] | < 1000 nM | < 1000 nM | < 50% | < 1000 nM | < 1000 nM | < 50% | < 1000 nM | < 50% | < 1000 nM |  |  |  |  |  |  |  |
| CCN(C)S(=O)(=O)Nc1ccc(F)c(Oc2ccc3ncc(OC4CCN(C5CCC(c6ccc(NC7CCC(=O)NC7=O)cc6F)CC5)CC4)nc3c2)c1C#N (single isomer, unassigned) [Compound 110, 7-[2-cyano-3-[[ethyl(methyl)sulfamoyl]amino]-6-fluoro-phenoxy]-2-[[1-[4-[4-[(2,6-dioxo-3-piperidyl)amino]-2-fluoro-phenyl]cyclohexyl]-4-piperidyl]oxy]quinoxaline] | < 1000 nM | < 1000 nM | 50 to 90% | < 1000 nM | < 1000 nM | < 50% | < 1000 nM | < 50% | < 1000 nM |  |  |  |  |  |  |  |
| CN(CCO)S(=O)(=O)Nc1ccc(F)c(Oc2ccc3ncn(C4CC5(CCN(C6CCC(c7cc8c(cc7F)c(N7CCC(=O)NC7=O)nn8C)CC6F)CC5)C4)c(=O)c3c2)c1C#N (single isomer, unassigned) [Compound 145, 6-[2-cyano-6-fluoro-3-[[2-hydroxyethyl(methyl)sulfamoyl]amino]phenoxy]-3-[7-[4-[3-(2,4-dioxohexahydropyrimidin-1-yl)-5-fluoro-1-methyl-indazol-6-yl]-2-fluoro-cyclohexyl]-7-azaspiro[3.5]nonan-2-yl]-4-oxo-quinazoline] | < 1000 nM | < 1000 nM |  | < 1000 nM | < 1000 nM | < 50% | < 1000 nM | < 50% | < 1000 nM |  | < 50% |  |  |  |  |  |
| CCN(C)S(=O)(=O)Nc1ccc(F)c(Oc2ccc3ncn([C@H]4COC5(CCC(N6CC7(CN(c8cc9c(cc8F)c(N8CCC(=O)NC8=O)nn9C)C7)C6)CC5)C4)c(=O)c3c2)c1C#N (stereo partly drawn) [Compound 27, 6-[2-cyano-3-[[ethyl(methyl)sulfamoyl]amino]-6-fluoro-phenoxy]-3-[(3R)-8-[6-[3-(2,4-dioxohexahydropyrimidin-1-yl)-5-fluoro-1-methyl-indazol-6-yl]-2,6-diazaspiro[3.3]heptan-2-yl]-1-oxaspiro[4.5]decan-3-yl]-4-oxo-quinazoline] | < 1000 nM | < 1000 nM | < 50% | < 1000 nM | < 1000 nM | < 50% | < 1000 nM | < 50% | < 1000 nM |  |  |  |  |  |  |  |
| CCN(C)S(=O)(=O)Nc1ccc(F)c(Oc2ccc3ncn([C@H]4CCC5(CCN(C6CCC(c7cc8c(cc7F)c(N7CCC(=O)NC7=O)nn8C)CC6)CC5)C4)c(=O)c3c2)c1C#N (single isomer, unassigned) [Compound 33] | < 1000 nM | < 1000 nM |  | < 1000 nM | < 1000 nM | < 50% | < 1000 nM | < 50% | < 1000 nM |  | < 50% |  |  |  |  |  |
